From patent US20080070851A1, “METHOD FOR THE EXTRACTION OF […] ACTIVE PRODUCTS FROM SPERMATOPHYTE PLANTS, PRODUCTS THUS OBTAINED AND THEIR USE IN THE MEDICAL FIELD, IN […] AS SUBSTANCES WITH IMMUNOMODULATING ACTIVITY” (Institudo Agrario Di S. Michele All'Adige, priority 2000, published 2008)

Key:
[1] = stability of the active agent in culture medium (HPLC quantification); assay type: physicochemical; conditions: for halving time in culture medium: culture medium of ex. 10; for amount still present at the end of the test: culture medium of ex. 10, 72 h
Excerpt: The instrumental conditions are the same as those described above for viniferine. The coefficient of molar extinction of both glucosides is almost the same as the one of the corresponding aglycones, so that they can be added as such after carrying out a correction for molecular weights (Mattivi et al. Isolation, characterization, and evolution in red wine vinification of resveratrol monomers, J. Agric. Food Chem., 1995, 43, 7, 1820-1823).
Zeitschdift fur Lebensmittel-Untersuchung und Forschung, 1993, 196, 522-525. In addition to what is contained in the aforesaid document, it has been verified that the method is suitable for all monomer stilbenes, both free and glucosides, and that the eluted fraction of ethyl acetate can be dried under a light flow of nitrogen, in case it is necessary to carry out the exchange in another solvent and/or to further reduce the limits of quantification.
Said techniques can be used for instance to control the stability of the active agent in culture mediums, and therefore to support in vitro experimental models which are going to be described in the following examples. For instance, the culture for means described in ex.

[2] = system: lymphocytes activated with anti-CD3/CD28; experiment: cell mortality of activated lymphocytes; assay type: cell-based, human
Procedure: (§1) Mononucleated cells of human peripheral blood (PBMC) deriving from healthy subjects have been obtained by separation on gradient (Ficoll-Hypaque) of cells deriving from buffy coat. Cell mortality has been evaluated by a cellular count in trypan blue and/or by flow cytometry using a cytometer FACscan (Becton-Dickinson), determining the vitality of unfixed cells which have been marked with propydium iodide (PI). Mononucleated cells of human peripheral blood (PBMC) have been activated by incubation with anti-CD3+ anti-CD28 and then incubated with different doses of resveratrol (or DMSO as control) as described above. Non-activated cells deriving from the same buffy coat have been used as control.

[3] = system: CD8+ T cells activated with anti-CD3/CD28; experiment: cytofluorometric analysis of intracytoplasmatic cytokine levels, CD8+ T cells; assay type: cell-based, human
Excerpt: (§2) Mononucleated cells of human peripheral blood (PBMC) deriving from healthy subjects have been obtained by separation on gradient (Ficoll-Hypaque) of cells deriving from buffy coat.
(§3) In vitro production of cytokines induced by activation with monoclonal anti-CD3 antibody carried out by the various T cell underpopulations in PBMC has been evaluated by means of a simultaneous cytofluorometric determination of the intracytoplasmatic cytokine content and of the expression of surface antigens in every single cell. By using said method it has been possible to evaluate the production of cytokines by single cell under-populations without previously physically separating them, and therefore in presence of the interactions in the production of cytokines which take place in physiological systems. The execution of said method is made possible by the use of saponin as reversible permeabilizing agent of cell membrane. In short, PBMC have been resuspended in a concentration of 1×10^6/ml, activated by treatment with anti-CD3 (10 ng/ml) and incubated with various doses of resveratrol. After 3 days of culture at 37° C. in a CO2 incubator, the cells have been treated with anti-CD28 (2 ng/ml) and with resveratrol in the same doses previously used. After further 3 days of treatment, the cells have been incubated with a fluorescent monoclonal antibody specific for a surface antigen (CD4 or CD8), resuspended in a medium with the addition of 0.3% saponin, and marked with an optimal dose of a mixture of anti-cytokine monoclonal antibodies conjugated with various fluorochromes. The samples thus treated have then undergone cytofluorometric analysis using a cytofluorometer FACscan (BD).
Mononucleated cells of human peripheral blood (PBMC) have been activated by incubation with anti-CD3+ anti-CD28 and then incubated with different doses of resveratrol (or DMSO as control) as described above. Non-activated cells deriving from the same buffy coat have been used as control. The percentage of T lymphocytes CD4+ and CD8+ positive for IL2, IL4 and IFN-γ has then been analyzed by means of flow cytofluorometry. […] The activity peak varies according to the examined cytokine, and precisely: 1.25-2.5 for IFN-γ (FIG. 1A), 0.625 for IL2 (FIG. 1B) and 2.5 for IL4 (FIG. 1C).

human lymphocytes = experiment: expression of surface antigens CD16, CD4 and CD95 in lymphocytes; assay type: cell-based; conditions: dose of 5 mcg/ml
Procedure: as §2
PBMC have been resuspended in a concentration of 1×10^6/ml and incubated for different periods of time with various doses of resveratrol. The cells have then been incubated with one or more fluorescent monoclonal antibodies, each being specific for a surface antigen (CD4, CD8, CD16 and CD95), and they have undergone a cytofluorometric analysis using a cytofluorometer FACscan (BD).
(§4) Mononucleated cells of human peripheral blood (PBMC) have been incubated for 18 h with resveratrol in a concentration of 0.625, 1.25, 2.5, 5, 10 and 20 mcg/ml. At the end of the incubation the cells have been tested for their natural cytotoxic activity (NK) against the human erythroleukemic line K 562. […] On the contrary, at doses of 10 and 20 mcg/ml resveratrol induces an inhibition of NK activity.

[4] = system: CD4+ T cells activated with anti-CD3/CD28; experiment: cytofluorometric analysis of intracytoplasmatic cytokine levels, CD4+ T cells; assay type: cell-based, human
Excerpt: as §2, §3
Mononucleated cells of human peripheral blood (PBMC) have been activated by incubation with anti-CD3+ anti-CD28 and then incubated with different doses of resveratrol (or DMSO as control) as described above. Non-activated cells deriving from the same buffy coat have been used as control. The percentage of T lymphocytes CD4+ and CD8+ positive for IL2, IL4 and IFN-γ has then been analyzed by means of flow cytofluorometry. […]

[5] = system: lymphocytes activated with anti-CD3/CD28; experiment: cell proliferation (Coulter count) and DNA synthesis (BrdU incorporation); assay type: cell-based, human
Excerpt: as §1, with “replication” for “mortality”, “carried out using a Coulter Counter. DNA synthesis has been measured by the test of incorporation of bromodeoxyuridine (BrdU) evaluated” for “in trypan blue and/or”, “(Becton-Dickinson).” for “(Becton-Dickinson), determining the vitality of unfixed cells which have been marked with propydium iodide (PI).”

[6] = system: lymphocytes activated with anti-CD3/CD28; experiment: apoptosis of activated lymphocytes; assay type: cell-based, human
Excerpt: as §2
PBMC resuspended in a concentration of 1×10^6/ml have been fixed in acetone/methanol 1:4, treated with 100 KU/ml of RNase and marked with propydium iodide (50 mcg/ml). The cells have then been analyzed by means of flow cytofluorometry using a cytometer FACscan.
PBMC resuspended in a concentration of 1×10^6/ml have been fixed in 4% paraformaldehyde, treated with 100 KU/ml of RNase and marked with propydium iodide. The cells have then been analyzed by means of observation with a confocal microscope (LEIKA TCS 4D).
Mononucleated cells of human peripheral blood (PBMC) have been activated by incubation with anti-CD3+ anti-CD28 and then incubated with different doses of resveratrol (or DMSO as control) as described above. Non-activated cells deriving from the same buffy coat have been used as control.

MT-2 cells = experiment: cytotoxic activity of T lymphocytes (CTL), 51Cr release; assay type: cell-based, human; conditions: 5 days
Procedure: Mononucleated cells of human peripheral blood (PBMC) deriving from healthy subjects have been obtained by separation on gradient (Ficoll-Hypaque) of cells deriving from buffy coat. […] Mononucleated cells of human peripheral blood (PBMC) have been incubated with resveratrol in a concentration of 0.625, 1.25, 2.5, 5 and 10 mcg/ml in presence of MT-2 cells (line of human T cells deriving from blood of umbilical cord infected with HTLV1) for 5 days at 37° C. At the end of the incubation the cells have been tested for their cytotoxic activity against said MT-2 cells.

[7] = system: human erythroleukemic line K 562; experiment: natural killer (NK) activity of PBMC, 51Cr release; assay type: cell-based; conditions: 18 h incubation
Procedure: as §2
PBMC in a concentration of 2×10^6 cells/ml have been treated in vitro with different doses of resveratrol for 18 h. At the end of the incubation the cells have been tested for their natural cytotoxic activity (NK) against the human erythroleukemic line K 562. The cytotoxic activity of the effect-producing cells incubated for 4 hours at 37° C. with K562 has been determined using a cytotoxicity standard test based on the release of ^51Cr by target cells.
as §4

[8] = system: PBMC activated with anti-CD3+ anti-CD28; experiment: percentage of CD4+ and CD8+ T lymphocytes in activated PBMC; assay type: cell-based, human
Procedure: Mononucleated cells of human peripheral blood (PBMC) deriving from healthy subjects have been obtained by separation on gradient (Ficoll-Hypaque) of cells deriving from buffy coat. PBMC have been resuspended in a concentration of 1×10^6/ml and incubated for different periods of time with various doses of resveratrol.

[9] = system: skin cancer induced by carcinogenic substances; conditions: in vivo, murine model of skin cancer; cited from earlier work
platelet aggregation = conditions: cited from earlier work
[10] = system: line MCF-7 derived from mammary adenocarcinoma; conditions: in vitro; cited from earlier work
[11] = system: line HL60 (human promyelocytic acute leukemia); conditions: cited from earlier work
cyclo-oxygenase = conditions: cited from earlier work

With Oc1ccc(/C=C\c2cc(O)cc(O)c2)cc1 [cis-resveratrol] the “halving time in culture medium” value [1] was 38 h and the “amount still present at the end of the test” value [1] was “about 25%”.
For Oc1ccc(C=Cc2cc(O)cc(O)c2)cc1 [resveratrol], the “mortality of activated cells” value ([2]; dose range of 2.5-10 mcg/ml) was “dose-dependent increase”, the “mortality of activated cells” value ([2]; doses of 0.625 and 1.25 mcg/ml) was “does not have any effect” and the “percentage of CD8+ cells which can synthesize all tested cytokines” value ([3]; dose of 5 and more significantly 10 mcg/ml) was “inhibition”. The “activity peak, CD8+ cells positive for IFN-γ” value ([3]; dose of peak stimulation, FIG. 1A) was 1.25 to 2.5 µg/mL, the “activity peak, CD8+ cells positive for IL2” value ([3]; dose of peak stimulation, FIG. 1B) was 0.625 µg/mL and the “activity peak, CD8+ cells positive for IL4” value ([3]; dose of peak stimulation, FIG. 1C) was 2.5 µg/mL. The “percentage of T cells CD8+ positive for intracellular IFN-γ, IL2 and IL4” value ([3]; dose range 0.625-2.5 mcg/ml, with respect to controls) was “significant increase”, the “cells which can co-express CD16 and CD95 (CD16+/CD95+ cells)” value (human lymphocytes) was “significant increase” and the “percentage of CD4+/CD95+ cells” value (human lymphocytes) was “does not induce any variation”. For the same compound, the “peak of stimulating activity, CD4+ cells positive for IFN-γ” value ([4]; FIG. 2A) was 2.5 µg/mL, the “peak of stimulating activity, CD4+ cells positive for IL2” value ([4]; FIG. 2B) was 1.25 to 2.5 µg/mL and the “peak of stimulating activity, CD4+ cells positive for IL4” value ([4]; FIG. 2C) was 0.625 µg/mL. The cell proliferation ([5]; dose range of 2.5-10 mcg/ml, FIGS. 3A and 3B) was “dose-dependent inhibition”, the “number of treated cells” value ([5]; doses of 0.625 and 1.25 mcg/ml, FIG. 3A) was “statistically significant increase” and the “ability to synthesize DNA” value ([5]; doses of 0.625 and 1.25 mcg/ml, FIG. 3B) was “statistically significant increase”. For the same compound, the “percentage of apoptotic cells” value ([6]; dose range of 2.5-10 mcg/ml) was “dose-dependent increase”, the “apoptosis of activated cells” value ([6]; doses of 0.625 and 1.25 mcg/ml) was “does not have any effect” and the “cytotoxic activity of T lymphocytes” value (MT-2 cells; dose of 0.625 mcg/ml) was “increase”. The “number of blast cells” value (MT-2 cells; dose of 0.625 mcg/ml) was “increase”, the “cytotoxic activity of T lymphocytes” value (MT-2 cells; dose range of 2.5-10 mcg/ml) was “inhibition” and the “number of blast cells” value (MT-2 cells; dose range of 2.5-10 mcg/ml) was “inhibition”. The NK activity ([7]; dose range of 0.625-5 mcg/ml) was “statistically significant increase”, the NK activity ([7]; doses of 10 and 20 mcg/ml) was “inhibition” and the “percentage of CD4+ cells” value ([8]; all tested doses) was “does not induce any variation”. The “percentage of activated CD8+ cells” value ([8]; dose range of 2.5-10 mcg/ml) was “dose-dependent decrease” and the “percentage of activated CD8+ cells” value ([8]; lower doses (below 2.5 mcg/ml)) was “does not induce any variation”.
In the case of Oc1ccc(/C=C/c2cc(O)cc(O)c2)cc1 [trans-resveratrol], the tumor genesis [9] is given as “inhibit tumor genesis”, the platelet aggregation (platelet aggregation) is given as “inhibits” and the “halving time in culture medium” value [1] is given as 28 h. The “amount still present at the end of the test” value [1] was “not present as such”, the “growth of MCF-7 cells” value [10] was “inhibit” and the “cellular cycle of HL60 cells” value [11] was “induce the stop of the cellular cycle in the transition from stage S to stage G2”. The “apoptosis of HL60 cells” value ([11]; high doses) was “induce apoptosis”, the “expression of CD95L in HL60 cells” value ([11]; high doses) was “regulate the expression of CD95L” and the cyclo-oxygenase activity (cyclo-oxygenase) was “inhibits”.
